Data published in paper PMC11815855, “Exploring the Structure–Activity Relationships of Albumin-Targeted Picoplatin-Based Platinum(IV) Prodrugs” (Inorganic Chemistry, 2025).
Marks after values point to notes of the source that are not given here.

Legend:
[1] = Interaction of platinum(II) complexes with 10 equiv GSH, NMR; assay type: physicochemical; conditions: 1 mM complex, 10% D2O/90% PBS pH 7.4, 37 °C
Description: The amount of remaining platinum(II) complex was monitored via ^1H NMR spectroscopy and, particularly for ^15N-cisplatin, via [^1H, ^15N] heteronuclear single quantum coherence (HSQC) NMR spectroscopy (Figure 1).[47]
(§1) An 1 mM solution of Pt compound was incubated in a mixture of 90% PB or PBS (150 mM, pH 7.4) and 10% D2O at 37 °C with and without the addition of 10 equiv GSH. The reaction was monitored with ^1H or [^1H, ^15N] […] The reference spectrum was shifted with a value of −0.5 ppm compared to the original ppm value calibrated to D2O before overlay with a spectrum at a single time point. In case of ^15N-cisplatin, the cross-peak of the parental complex in [^1H, ^15N] HSQC at time point 0 h was used as reference, and spectral overlay was achieved by shifting the 2D spectra at all given time points (2, 4, 6, and 8 h) with vertical steps of +14 ppm compared to the original ^15N NMR ppm value of the parental complex.

[2] = Stability of platinum(II) complexes in PBS or PB, NMR; assay type: physicochemical; conditions: 1 mM, pH 7.4, 37 °C, 8 h incubation, no GSH
Description: as §1

CT26 tumors = assay: Anticancer activity in vivo, CT26-bearing Balb/c mice; conditions: i.v. on days 3 and 10, dose equimolar to 20 mg/kg picoplatin
Description: Ten-week-old Balb/c mice were purchased from Envigo Laboratories (San Pietro al Natisone, Italy). […] Animals were controlled for distress development every day, and tumor size was assessed regularly by caliper measurement. Tumor volume was calculated using the formula: (length × width^2)/2.
CT26 cells (5 × 10^5 in serum-free medium) were injected subcutaneously into the right flank of male Balb/c mice. Therapy was started when tumor nodules were palpable (day 3). […] Mice were sacrificed by cervical dislocation in the case of a tumor length >20 mm, tumor ulceration, or other signs for distress.

CT26 colon cancer cells [3] = assay: MTT-based cell viability assay, CT26, 72 h; parameters: species or system murine; conditions: 72 h drug exposure
Text: (§2) For the cell culture assays, the human ovarian model A2780/wt and its corresponding cisplatin-resistant subline A2780/cis (both purchased from Sigma and cultured in RPMI1640 medium), the human colorectal cancer model HCT116 (cultured in McCoy′s medium), and the murine (Balb/c) colorectal cancer model CT26 (cultured in DMEM/F-12 (1:1) medium) were used. The colon cancer models were purchased from the American Type Culture Collection (ATCC). The media were supplemented with 10% FCS (purchased from PAA Linz, Austria). To maintain drug resistance of A2780/cis, the subline was cultivated under continuous selection pressure (1 μM cisplatin). The selection drug was removed 1 week before the experiments were performed. Cell cultures were maintained at 37 °C in humidified atmosphere containing 5% CO2. All cultures were free of antibiotics and regularly checked for mycoplasma contamination. All cell culture media and reagents were purchased from Sigma-Aldrich Austria. All investigated drugs were dissolved in either water (oxaliplatin, carboplatin) or DMF before further dilution in cell culture medium. DMF concentrations were always below 0.5%.
(§3) Subsequently, the cells were incubated with the tested compounds in rising concentrations. […] The received data were visualized as dose–response curves by Graph Pad Prism 5 software (Graph Pad software, USA).

[4] = system: HCT116 colon cancer cells; assay: Colony formation (clonogenic) assay, HCT116, 7 days; assay type: cell-based, human; conditions: 7 days drug exposure, clonogenic assay
Text: as §2
(§4) Then, cells were exposed to the indicated drugs in rising concentrations. After 7 days, the cells were fixed with methanol for 20 min at 4 °C and stained with crystal violet 5 (0.01% in PBS). The fluorescence of the crystal violet was detected by the Typhoon scanner (Typhoon TRIO Variable Mode Imager, GE Healthcare Life Sciences) after excitation by the red laser (633 nm). Quantification was done with ImageJ software.

[5] = system: HCT116 colon cancer cells; assay: MTT-based cell viability assay, HCT116, 72 h; parameters: species or system human; conditions: 72 h drug exposure
Text: as §2, §3

CT26 colon cancer cells [6] = assay: Colony formation (clonogenic) assay, CT26, 7 days; assay type: cell-based, murine; conditions: 7 days drug exposure
Text: as §2, §4

[7] = system: A2780/wt ovarian cancer cells; assay: MTT-based cell viability assay, A2780/wt, 72 h; parameters: species or system human; conditions: 72 h drug exposure, means of independent experiments
Text: as §2, §3

[8] = system: A2780/cis ovarian cancer cells; assay: MTT-based cell viability assay, A2780/cis (cisplatin-resistant), 72 h; parameters: species or system human; conditions: for IC50: 72 h drug exposure, cisplatin-resistant subline, means of independent experiments; for IC50 / IC50 in A2780/cis compared to A2780/wt: MTT-based assay; for IC50 in A2780/cis compared to A2780/wt / RF (resistance factor): 72 h; for RF (resistance factor): fold-change between IC50 values of A2780/cis:A2780/wt
Text: as §2, §3

[9] = Reduction of platinum(IV)-succinimide complexes with 10 equiv GSH, UHPLC; assay type: physicochemical; conditions: 1 mM, 150 mM PB pH 7.4, 20 °C, 6 h
Text: It is well-known that platinum(IV) complexes derived from, e.g., oxaliplatin or carboplatin, bearing leaving groups other than chlorido ligands, have distinctly slower reduction rates compared to cisplatin(IV) analogs.[54] This can be explained by a bridging interaction between the chlorido ligands and the reducing agent, which facilitates electron transfer to the platinum center.[55] […] The reductive behavior was also investigated in the presence of 10 equiv GSH in coherence with the above investigated interactions of platinum(II) with GSH (Figure S8).
(§5) PB (150 mM, pH 7.4) containing 1 mM Pt compound was incubated at 20 °C with and without the addition of 10 equiv L-ascorbic acid or reduced GSH. The reaction was monitored on a Thermo Scientific Dionex UltiMate 3000 UHPLC-system using a Waters Acquity UPLC BEH C18 1.7 μm, 3.0 × 50 mm column. Milli-Q water containing 0.1% formic acid and acetonitrile containing 0.1% formic acid were used as eluents. A gradient of 5–95% over 5 min was used with a flow of 0.6 mL/min. To evaluate the reaction process, we used the peak area of the parental complex.

[10] = Reduction kinetics of platinum(IV)-succinimide complexes with AA, UHPLC; assay type: physicochemical; conditions: 1 mM, 10 equiv AA, 150 mM PB pH 7.4, 20 °C, 6 h
Description: Platinum(IV) prodrugs need to be reduced in the tumor environment to release the cytotoxic platinum(II) complexes. Thus, the reduction properties of Pico-Succ, PicoCarbo-Succ, and PicoOxali-Succ were investigated. As mentioned above, succinimide complexes were used for these studies to avoid competitive hydrolysis of the maleimide moiety. All platinum(IV)-succinimide complexes were incubated in both the absence and presence of a 10-fold excess L-ascorbic acid (AA) in PB at pH 7.4 and 20 °C over 6 h. The amount of remaining intact platinum(IV) complex at given time points was measured via ultrahigh performance liquid chromatography (UHPLC), as shown in Figure 2. Pico-Succ was reduced extremely fast, with only traces of the original complex left in the first measurement after ∼5 min of incubation. Even with equimolar amounts of AA, 90% of Pico-Succ was already reduced after ∼5 min (Figure S6). This level of reductive instability is exceptionally high, even when compared to the “fast” reducing cisplatin(IV) prodrugs, which show a complete conversion after ∼10 h in the presence of 10 equiv AA.[41],[53]
as §5

albumin = albumin (Bos taurus, UniProt P02769); assay: Albumin binding and stability in phosphate-buffered FCS, SEC-ICP-MS; conditions: 50 μM in FCS (150 mM PB, pH 7.4), 37 °C, over 25 h; 195Pt only in LMWF
Description: FCS was purchased from Sigma-Aldrich and buffered with 150 mM phosphate pH 7.4 in order to guarantee a stable pH. The platinum(IV) complexes were dissolved in 150 mM PB (pH 7.4) at a concentration of 5 mM and diluted 1:100 in buffered serum to obtain a final concentration of 50 μM. […] Between each sample, a pure water blank was measured. […] Oxygen (purity 5.5, Messer Austria GmbH, Gumpoldskirchen, Austria) was used as the reaction gas.

horse heart CytC = target: T1, horse heart CytC (Equus caballus, UniProt P00004); assay: Reduction with cytochrome C and NADH, UHPLC; assay type: biochemical; conditions: 700 μM, 0.1 equiv CytC and 10 equiv NADH, 50 mM PB pH 6.0, 37 °C
T1 construct: 0.1 equiv horse heart CytC; from tissue; host or cells: horse heart
Text: (§6) To explain the rather unusual in vivo findings, especially with respect to Pico-Mal, we hypothesized that inefficient reductive release of the platinum(II) core from albumin due to steric hindrance of the 2-picoline could provide a plausible explanation for the lack of antitumor activity despite a favorable pharmacokinetic profile. […] To gain insights into whether the molecular weight and thus steric demands of the reducing agent impact the reduction of picoplatin(IV) derivatives, Pico-Succ and the reference complex Cis-Succ were analyzed in the presence of cytochrome C (CytC; ∼12,000 g/mol) or AA (176 g/mol). Therefore, Pico-Succ and Cis-Succ (for synthesis and ^1H NMR characterization, see experimental part and Scheme S1) were coincubated at pH 6.0 with 0.1 equiv CytC[60] and 10 equiv reduced NADH or with 10 equiv AA at 37 °C over 4 h, and the reduction kinetics were compared relatively. The amount of remaining intact platinum(IV) complex at given time points was measured via UHPLC (Figure 6). […]
(§7) PB (50 mM, pH 6.0) containing 700 μM Pt compound was incubated at 37 °C with the addition of 0.1 equiv horse heart CytC and 10 equiv reduced NADH or with 10 equiv L-ascorbic acid. The reaction was monitored on a Thermo Scientific Dionex UltiMate 3000 UHPLC-system using a Waters Acquity UPLC BEH peptide C18 1.7 μm 2.1 × 100 mm column. […]

[11] = Reduction with 10 equiv AA at pH 6.0 and 37 °C, UHPLC; assay type: physicochemical; conditions: 700 μM, 50 mM PB pH 6.0, 37 °C, 4 h
Text: as §6, §7

Sequence of albumin (P02769 25-607): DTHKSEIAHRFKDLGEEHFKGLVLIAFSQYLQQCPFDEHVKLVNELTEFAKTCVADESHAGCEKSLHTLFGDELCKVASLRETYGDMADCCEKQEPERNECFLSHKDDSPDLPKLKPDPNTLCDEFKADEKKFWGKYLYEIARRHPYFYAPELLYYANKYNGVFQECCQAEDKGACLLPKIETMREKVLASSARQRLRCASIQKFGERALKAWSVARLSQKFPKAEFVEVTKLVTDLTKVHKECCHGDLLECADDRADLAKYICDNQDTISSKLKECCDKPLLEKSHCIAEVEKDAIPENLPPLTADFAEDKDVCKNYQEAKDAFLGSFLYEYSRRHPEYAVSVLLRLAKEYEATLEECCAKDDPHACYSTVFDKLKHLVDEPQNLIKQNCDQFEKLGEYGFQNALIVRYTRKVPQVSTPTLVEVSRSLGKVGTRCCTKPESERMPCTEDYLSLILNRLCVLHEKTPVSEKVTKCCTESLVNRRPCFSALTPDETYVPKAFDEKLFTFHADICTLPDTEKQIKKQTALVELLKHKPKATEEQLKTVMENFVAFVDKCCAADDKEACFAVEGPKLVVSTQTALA
T1 sequence (P00004 whole entry): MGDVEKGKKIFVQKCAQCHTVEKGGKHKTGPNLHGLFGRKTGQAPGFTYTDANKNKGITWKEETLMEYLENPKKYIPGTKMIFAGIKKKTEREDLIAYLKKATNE

Row | Compound | complex left in 10% D2O/90% PBS [2] | IC50 (CT26 colon cancer cells [3]) | IC50 [4] | IC50 [5] | IC50 (CT26 colon cancer cells [6]) | IC50 [7] | IC50 [8] | other results
1 | [15NH3].[15NH3].[Cl][Pt][Cl] [^15N-cisplatin, cis-[PtCl2(^15NH3)2]] | > 95% | – | – | – | – | – | – | platinum(II) complex left after 2 h with GSH ([1]; 2 h, [1H,15N] HSQC NMR): ~20%; platinum(II) complex reacted with GSH after 4 h ([1]; 4 h): nearly complete reaction
2 | CC(=O)[O][Pt]1([O]C(=O)NCCN2C(=O)C=CC2=O)[O]C(=O)C2(CCC2)C(=O)[O]1.Cc1ccccn1.N [PicoCarbo-Mal, (OC-6-21)[Acetato(ammine)(cyclobutane-1,1-dicarboxylato)(1-(2-isocyanatoethyl)-1H-pyrrole-2,5-dione)(2-methylpyridine)platinum(IV)]] | – | – | – | – | – | – | – | impact on tumor growth (CT26 tumors): significantly inhibited tumor growth
3 | Cc1ccccn1.N.O=C1[O][Pt][O]C(=O)C12CCC2 [PicoCarbo, (SP-4-4)[(Ammine)(cyclobutane-1,1-dicarboxylato)(2-methylpyridine)platinum(II)]] | > 95% | 74.5 µM | 90 µM | > 100 µM | 26.3 µM | > 100 µM | > 100 µM | intact platinum(II) complex left after 8 h with GSH ([1]; 8 h, 1H NMR): ~90%
4 | CC(=O)[O][Pt]1([O]C(=O)NCCN2C(=O)CCC2=O)[O]C(=O)C2(CCC2)C(=O)[O]1.Cc1ccccn1.N [PicoCarbo-Succ, (OC-6-21)[Acetato(ammine)(cyclobutane-1,1-dicarboxylato)(1-(2-isocyanatoethyl)pyrrolidine-2,5-dione)(2-methylpyridine)platinum(IV)]] | – | > 100 µM | > 100 µM | > 100 µM | > 100 µM | > 100 µM | > 100 µM | reduction with 10 equiv GSH over 6 h [9]: no notable reduction; intact platinum(IV) complex left after 6 h with AA [10]: ~90%
5 | Cc1ccccn1.N.O=C1[O][Pt][O]C1=O [PicoOxali] | readily degraded | 33.7 µM | 15.8 µM | > 100 µM | 7.26 µM | 33.4 µM | 46 µM | complex left in 10% D2O/90% PB [2]: > 90%; IC50 in A2780/cis compared to A2780/wt [8]: 1.4 fold; RF (resistance factor) [8]: 1.4^ns
6 | N.N.[Cl][Pt][Cl] [cisplatin, reference compound] | – | 2.17 µM | 0.82 µM | 3.15 µM | 0.46 µM | 1.54 µM | 7.81 µM | IC50 in A2780/cis compared to A2780/wt [8]: 5.1 fold; RF (resistance factor) [8]: 5.1****
7 | CC(=O)[O][Pt]1([O]C(=O)NCCN2C(=O)CCC2=O)[O]C(=O)C(=O)[O]1.Cc1ccccn1.N [PicoOxali-Succ, (OC-6-21)[Acetato(ammine)(1-(2-isocyanatoethyl)pyrrolidine-2,5-dione)(2-methylpyridine)(oxalato)platinum(IV)]] | – | > 100 µM | > 100 µM | > 100 µM | > 100 µM | > 100 µM | > 100 µM | albumin conjugation (albumin): no albumin conjugation; reduction with 10 equiv GSH over 6 h [9]: no notable reduction; intact platinum(IV) complex left after 6 h with AA [10]: ~70%
8 | (OC-6-44)[Acetatodiamminedichlorido[2-(2,5-dioxopyrrolidin-1-yl)butyl)carbamato]platinum(IV)] [Cis-Succ, reference compound] | – | – | – | – | – | – | – | time to complete reduction with CytC (horse heart CytC): 4 h; reduction with AA after 4 h [11]: ~40%
